What all share (type): binding, human
The test system of one test is HIV-1 antibodies. Briefly: ELISA, single peptides identifying HIV-1 positive sera. The following applies: ELISA, single peptide. Here is the method: (§1) According to this test a peptide or a peptide mixture of the present invention is adsorbed onto the wells of a microtiter plate. The wells are then treated with sera to be tested. After washing, anti-human IgG labeled with peroxidase is added to the wells. The determination of the peroxidase is performed with a corresponding substrate, e.g. with o-phenylene diamine. Also in this procedure the peroxidase can be exchanged by another label, e.g. by a radioactive or fluorescence label.
(§2) Each well of the microtiter plate is saturated with 100 μl of a solution containing a peptide or mixture of peptides (5 μg/ml) and left overnight. The wells are emptied and washed twice with a washing buffer (Tris, 0.043M; NaCl, 0.5M;thimerosal, 0.01% w/v; Tween 20, 0.05% v/v; pH 7.4). The wells are then saturated with 0.35 ml of washing buffer for 1 hr. at 37° C. and washed once with the same buffer. Serum samples to be analyzed are diluted with specimen buffer (washing buffer plus casein, 0.05% w/v). The wells are rinsed with washing buffer prior to the addition of the diluted serum sample (0.1 ml). These are left to incubate for 1 hr. at room temperature. The wells are then emptied, washed twice rapidly and then once for two minutes with washing buffer. […] The wells are then emptied and washed twice rapidly with washing buffer and then five times in which the buffer was in contact with the well 2 minutes per washing.
(§3) The substrate solution (3,3', 5,5'-tetramethylbenzidine, 8 mg per ml of DMSO) is diluted with 100 volumes 0.1M citrate-acetate buffer, pH 5.6 containing 0.1% v/v of 30% H2 O2 and added to each well (0.1 ml per well). After 10 minutes the contents of each well is treated with 0.1 ml 2N H2 SO4 and the optical density read at 450 nm. All determinations are done in duplicate.

The next test relates to HIV-1-antibodies. Briefly: ELISA, cyclic versus non-cyclic peptides, sera at various dilutions. The procedure:
TABLE 5 is provided to illustrate the sensitivity of cyclic versus noncyclic peptides in the ELISA test by comparing the results of some sera at various dilutions.
Plates used in this experiment were coated with solutions of peptides at 10 μg/ml. (Experimental results of TABLE 5 were obtained with plates coated with peptides at 0,5 μg/ml). Four different HIV-1 positive serum samples were serially diluted and their titers determined. The titer was defined as the serum dilution giving an absorbancy reading of 1:0 in the conditions of the ELISA procedure already described.
as §2, §3
In general terms: ELISA stands for enzyme-linked immunosorbent assay.

Another test has as its system HIV-2 antibodies. Briefly: ELISA, single peptides identifying HIV-2 positive sera. Conditions: 5 tested. Here is the method:
as §1, with “A preferred convenient and classical technique for the determination of antibodies against AIDS virus using a peptide or a peptide mixture of the present invention is an enzyme-linked immunosorbent assay (ELISA). According” for “According”
The cyclic peptides of the present invention and their mixtures with one or more linear peptides were tested in accordance with the ELISA test described previously against a variety of sera, some of which were confirmed positive and others which were confirmed negative.
TABLE 4 provides the results of single peptides which were individually evaluated in identifying known HIV-2 positive sera.
as §2, §3

Positions of bridges follow the written chain, without caps; N, C: chain ends. Residues, ends and D or L forms follow the SMILES beside them.

Turning to `CC[C@H](C)[C@@H]1NC(=O)[C@H](CC(C)C)NC(=O)[C@H](CCCCN)NC(=O)CNC(=O)[C@H](CO)NC(=O)[C@@H](NC(=O)CN)CSSC[C@@H](C(=O)N[C@H](C(=O)N[C@H](C(=O)N[C@@H](C)C(=O)N[C@H](C(=O)N2CCC[C@H]2C(=O)N[C@@H](Cc2c[nH]c3ccccc23)C(=O)N[C@@H](CC(N)=O)C(=O)N[C@@H](C)C(=O)N[C@@H](CO)C(=O)O)C(C)C)[C@@H](C)O)[C@@H](C)O)NC1=O` [Peptide 80] (H-GCSGKLICTTAVPWNAS-OH; disulfide 2-8), the “% Positive Sera correctly Identified” value with HIV-1 antibodies is recorded as 100%. The ELISA optical density with HIV-1-antibodies (serum 87V103, dilution 1/50) is on record as 0.003 optical density units; with HIV-1-antibodies (serum 1428, dilution 1/50), 1.047 optical density units; in the test on HIV-1-antibodies (serum M-5, dilution 1/50) it was 2.104 optical density units; in the test on HIV-1-antibodies (serum M-5, dilution 1/100), 1.881 optical density units; in the test with HIV-1-antibodies (serum M-5, dilution 1/200), 1.599 optical density units; with HIV-1-antibodies (serum M-5, dilution 1/800) it was 0.767 optical density units. Besides, the ELISA optical density is reported as 0.191 optical density units in the test with HIV-1-antibodies (serum M-7, dilution 1/50); 0.067 optical density units with HIV-1-antibodies (serum M-7, dilution 1/100); 0.019 optical density units with HIV-1-antibodies (serum M-7, dilution 1/200); 0.010 optical density units in the test on HIV-1-antibodies (serum M-7, dilution 1/400); 0.005 optical density units with HIV-1-antibodies (serum M-7, dilution 1/800); 1.026 optical density units in the test on HIV-1-antibodies (serum M-8, dilution 1/50). For the same compound, the ELISA optical density was 0.737 optical density units with HIV-1-antibodies (serum M-8, dilution 1/100); 0.520 optical density units with HIV-1-antibodies (serum M-8, dilution 1/200); 0.340 optical density units with HIV-1-antibodies (serum M-8, dilution 1/400); 0.159 optical density units in the test on HIV-1-antibodies (serum M-8, dilution 1/800); 1.601 optical density units in the test with HIV-1-antibodies (serum M-16, dilution 1/50); 1.300 optical density units in the test on HIV-1-antibodies (serum M-16, dilution 1/100). Besides, the ELISA optical density was 0.903 optical density units in the test with HIV-1-antibodies (serum M-16, dilution 1/200); 0.583 optical density units with HIV-1-antibodies (serum M-16, dilution 1/400); 0.329 optical density units with HIV-1-antibodies (serum M-16, dilution 1/800).

Turning to `CC[C@H](C)[C@H](NC(=O)[C@H](C)NC(=O)[C@@H](NC(=O)[C@@H](NC(=O)[C@@H](N)CCCNC(=N)N)C(C)C)[C@@H](C)O)C(=O)N[C@@H](CCC(=O)O)C(=O)N[C@@H](CCCCN)C(=O)N[C@@H](Cc1ccc(O)cc1)C(=O)N[C@@H](CC(C)C)C(=O)N[C@@H](CCC(N)=O)C(=O)N[C@@H](CC(=O)O)C(=O)N[C@@H](CCC(N)=O)C(=O)N[C@@H](C)C(=O)N[C@@H](CCCNC(=N)N)C(=O)N[C@@H](CC(C)C)C(=O)N[C@@H](CC(N)=O)C(=O)N[C@@H](CO)C(=O)N[C@@H](Cc1c[nH]c2ccccc12)C(=O)NCC(=O)N[C@H]1CSSC[C@@H](C(N)=O)NC(=O)[C@H](C(C)C)NC(=O)[C@H](CCC(N)=O)NC(=O)[C@H](CCCNC(=N)N)NC(=O)[C@H](Cc2ccccc2)NC(=O)[C@H](C)NC1=O` [Peptide 146], in the test on HIV-2 antibodies, the “% Positive Sera correctly Identified” value came out at 100%.

For `CC(C)C[C@H](NC(=O)[C@H](CCCNC(=N)N)NC(=O)[C@H](C)NC(=O)[C@H](CCC(N)=O)NC(=O)[C@H](CC(=O)O)NC(=O)[C@@H](N)CCC(N)=O)C(=O)N[C@@H](CC(N)=O)C(=O)N[C@@H](CO)C(=O)N[C@@H](Cc1c[nH]c2ccccc12)C(=O)NCC(=O)N[C@H]1CSSC[C@@H](C(=O)N[C@@H](Cc2c[nH]cn2)C(=O)N[C@H](C(=O)N[C@H](C(=O)N[C@H](C(=O)N2CCC[C@H]2C(=O)N[C@@H](Cc2c[nH]c3ccccc23)C(=O)N[C@H](C(=O)N[C@@H](CC(N)=O)C(=O)N[C@@H](CC(=O)O)C(=O)N[C@@H](CO)C(N)=O)C(C)C)C(C)C)[C@@H](C)O)[C@@H](C)O)NC(=O)[C@H](C(C)C)NC(=O)[C@H](CCC(N)=O)NC(=O)[C@H](CCCNC(=N)N)NC(=O)[C@H](Cc2ccccc2)NC(=O)[C@H](C)NC1=O` [Peptide 147], the “% Positive Sera correctly Identified” value in the test with HIV-2 antibodies is 100%.

Consider `CC(=O)N[C@@H](CCC(N)=O)C(=O)N[C@@H](CC(=O)O)C(=O)N[C@@H](CCC(N)=O)C(=O)N[C@@H](C)C(=O)N[C@@H](CCCNC(=N)N)C(=O)N[C@@H](CC(C)C)C(=O)N[C@@H](CC(N)=O)C(=O)N[C@@H](CO)C(=O)N[C@@H](Cc1c[nH]c2ccccc12)C(=O)NCC(=O)N[C@H]1CSSC[C@@H](C(N)=O)NC(=O)[C@H](C(C)C)NC(=O)[C@H](CCC(N)=O)NC(=O)[C@H](CCCNC(=N)N)NC(=O)[C@H](Cc2ccccc2)NC(=O)[C@H](C)NC1=O` [Peptide 200], for which the “% Positive Sera correctly Identified” value in the test with HIV-2 antibodies turned out to be 100%.

Turning to `CC(C)[C@@H]1NC(=O)[C@H](CCC(N)=O)NC(=O)[C@H](CCCNC(=N)N)NC(=O)[C@H](Cc2ccccc2)NC(=O)[C@H](C)NC(=O)[C@@H](NC(=O)CN)CSSC[C@@H](C(=O)N[C@@H](Cc2c[nH]cn2)C(=O)N[C@H](C(=O)N[C@H](C(=O)N[C@H](C(=O)N2CCC[C@H]2C(=O)N[C@@H](Cc2c[nH]c3ccccc23)C(=O)N[C@H](C(=O)N[C@@H](CC(N)=O)C(=O)N[C@@H](CC(=O)O)C(=O)N[C@@H](CO)C(=O)O)C(C)C)C(C)C)[C@@H](C)O)[C@@H](C)O)NC1=O` [Peptide 201], the “% Positive Sera correctly Identified” value in the test on HIV-2 antibodies is reported as 100%.

Turning to “NH2 -GCSGKLICTTAVPWNAS-COOH (H-GCSGKLICTTAVPWNAS-OH; cysteine pairing not given here) [Peptide 77, linear peptide, gp41 604-620]”, the “% Positive Sera correctly Identified” value in the test with HIV-1 antibodies is reported as 100%. For the same compound, the ELISA optical density came out at 0.000 optical density units in the test on HIV-1-antibodies (serum 87V103, dilution 1/50); 0.926 optical density units in the test with HIV-1-antibodies (serum 1428, dilution 1/50); 1.719 optical density units with HIV-1-antibodies (serum M-5, dilution 1/50); 1.459 optical density units in the test with HIV-1-antibodies (serum M-5, dilution 1/100); 1.248 optical density units with HIV-1-antibodies (serum M-5, dilution 1/200); 0.959 optical density units in the test with HIV-1-antibodies (serum M-5, dilution 1/400). The ELISA optical density in the test with HIV-1-antibodies (serum M-5, dilution 1/800) was 0.057 optical density units; with HIV-1-antibodies (serum M-7, dilution 1/50) it was 0.142 optical density units; in the test with HIV-1-antibodies (serum M-7, dilution 1/100), 0.025 optical density units; in the test on HIV-1-antibodies (serum M-7, dilution 1/200), 0.007 optical density units; in the test with HIV-1-antibodies (serum M-7, dilution 1/400), 0.001 optical density units; in the test on HIV-1-antibodies (serum M-7, dilution 1/800), 0.000 optical density units. Besides, the ELISA optical density is 0.795 optical density units with HIV-1-antibodies (serum M-8, dilution 1/50); 0.507 optical density units with HIV-1-antibodies (serum M-8, dilution 1/100); 0.376 optical density units with HIV-1-antibodies (serum M-8, dilution 1/200); 0.209 optical density units in the test on HIV-1-antibodies (serum M-8, dilution 1/400); 0.062 optical density units in the test on HIV-1-antibodies (serum M-8, dilution 1/800); 1.219 optical density units in the test with HIV-1-antibodies (serum M-16, dilution 1/50). Further, the ELISA optical density with HIV-1-antibodies (serum M-16, dilution 1/100) is 0.962 optical density units; in the test with HIV-1-antibodies (serum M-16, dilution 1/200), 0.613 optical density units; with HIV-1-antibodies (serum M-16, dilution 1/400), 0.301 optical density units; in the test with HIV-1-antibodies (serum M-16, dilution 1/800), 0.205 optical density units.

These data come from patent US6214537A, “Synthetic peptides and mixtures thereof for detecting HIV antibodies” (Biochem Immunosystems, Inc., priority 1988, dated 2001).
